Columns and labels:
Format in all cases: in vivo
[1] = system: Amaranthus retoflexus (AMARE); assay: Pre-emergence herbicidal test; conditions: 1000 g/ha, evaluated after 13 days
Setaria faberi (SETFA) [2] = assay: Pre-emergence herbicidal test; conditions: 1000 g/ha, evaluated after 13 days
[3] = system: Echinochloa crus-galli (ECHCG); assay: Pre-emergence herbicidal test; conditions: 1000 g/ha, evaluated after 13 days
[4] = system: Ipomoea hederacea (IPOHE); assay: Pre-emergence herbicidal test; conditions: 1000 g/ha, evaluated after 13 days
[5] = system: Abutilon theophrasti (ABUTH); assay: Pre-emergence herbicidal test; conditions: 1000 g/ha, evaluated after 13 days
Zea mays (ZEAMX) [6] = assay: Pre-emergence herbicidal test; conditions: 1000 g/ha, evaluated after 13 days
[7] = system: Abutilon theophrasti (ABUTH); assay: Post-emergence herbicidal test; conditions: 1000 g/ha unless otherwise stated, evaluated after 13 days
Protocol: (§1) Seeds of a variety of test species are sown in standard soil in pots (Amaranthus retoflexus (AMARE), Solanum nigrum (SOLNI), Setaria faberi (SETFA), Lolium perenne (LOLPE), Echinochloa crus-galli (ECHCG), Ipomoea hederacea (IPOHE), Abutilon theophrasti (ABUTH), Zea mays (ZEAMX)). After 8 days cultivation under controlled conditions in a glasshouse (at 24° C./16° C., day/night; 14 hours light; 65% humidity), the plants are sprayed with an aqueous spray solution derived from the formulation of the technical active ingredient in acetone/water (50:50) solution containing 0.5% Tween 20 (polyoxyethelyene sorbitan monolaurate, CAS RN 9005-64-5). Compounds are applied at 1000 g/ha unless otherwise stated. The test plants are then grown in a glasshouse under controlled conditions in a glasshouse (at 24° C./16° C., day/night; 14 hours light; 65% humidity) and watered twice daily. After 13 days the test is evaluated for the percentage damage caused to the plant. The biological activities are shown in the following table on a five-point scale (5=81-100%; 4=61-80%; 3=41-60%; 2=21-40%; 1=10-20%; 0=0%;−=not tested).

[8] = system: Amaranthus retoflexus (AMARE); assay: Post-emergence herbicidal test; conditions: 1000 g/ha unless otherwise stated, evaluated after 13 days
Protocol: as §1

[9] = system: Echinochloa crus-galli (ECHCG); assay: Post-emergence herbicidal test; conditions: 1000 g/ha unless otherwise stated, evaluated after 13 days
Protocol: as §1

[10] = system: Ipomoea hederacea (IPOHE); assay: Post-emergence herbicidal test; conditions: 1000 g/ha unless otherwise stated, evaluated after 13 days
Protocol: as §1

Setaria faberi (SETFA) [11] = assay: Post-emergence herbicidal test; conditions: 1000 g/ha unless otherwise stated, evaluated after 13 days
Protocol: as §1

Zea mays (ZEAMX) [12] = assay: Post-emergence herbicidal test; conditions: 1000 g/ha unless otherwise stated, evaluated after 13 days
Protocol: as §1

## C#CCOC(=O)c1nn(-c2ccc(OC(F)(F)F)cc2)c2cccc(S(C)(=O)=O)c2c1=O [Compound P79, prop-2-ynyl 5-methylsulfonyl-4-oxo-1-[4-(trifluoromethoxy)phenyl]cinnoline-3-carboxylate]
[1]
  percentage damage caused to the plant, five-point scale, AMARE: 0 (0=0%)
Setaria faberi (SETFA) [2]
  percentage damage caused to the plant, five-point scale, SETFA: 5 (5=81-100%)
[3]
  percentage damage caused to the plant, five-point scale, ECHCG: 5 (5=81-100%)
[4]
  percentage damage caused to the plant, five-point scale, IPOHE: 1 (1=10-20%)
[5]
  percentage damage caused to the plant, five-point scale, ABUTH: 0 (0=0%)
Zea mays (ZEAMX) [6]
  percentage damage caused to the plant, five-point scale, ZEAMX: 1 (1=10-20%)
[7]
  percentage damage caused to the plant, ABUTH (five-point scale): 1 (1=10-20%)
[8]
  percentage damage caused to the plant, AMARE (five-point scale): 0 (0=0%)
[9]
  percentage damage caused to the plant, ECHCG (five-point scale): 4 (4=61-80%)
[10]
  percentage damage caused to the plant, IPOHE (five-point scale): 1 (1=10-20%)
Setaria faberi (SETFA) [11]
  percentage damage caused to the plant, SETFA (five-point scale): 4 (4=61-80%)
Zea mays (ZEAMX) [12]
  percentage damage caused to the plant, ZEAMX (five-point scale): 1 (1=10-20%)

## CS(=O)(=O)c1cc(F)cc2c1c(=O)c(C(=O)O)nn2-c1ccc(OC(F)(F)F)cc1 [Compound P21, 7-fluoro-5-methylsulfonyl-4-oxo-1-[4-(trifluoromethoxy)phenyl]cinnoline-3-carboxylic acid]
[1]
  percentage damage caused to the plant, five-point scale, AMARE: 0 (0=0%)
Setaria faberi (SETFA) [2]
  percentage damage caused to the plant, five-point scale, SETFA: 4 (4=61-80%)
[3]
  percentage damage caused to the plant, five-point scale, ECHCG: 2 (2=21-40%)
[4]
  percentage damage caused to the plant, five-point scale, IPOHE: 0 (0=0%)
[5]
  percentage damage caused to the plant, five-point scale, ABUTH: 0 (0=0%)
Zea mays (ZEAMX) [6]
  percentage damage caused to the plant, five-point scale, ZEAMX: 1 (1=10-20%)
[7]
  percentage damage caused to the plant, ABUTH (five-point scale): 0 (0=0%)
[8]
  percentage damage caused to the plant, AMARE (five-point scale): 0 (0=0%)
[9]
  percentage damage caused to the plant, ECHCG (five-point scale): 2 (2=21-40%)
[10]
  percentage damage caused to the plant, IPOHE (five-point scale): 0 (0=0%)
Setaria faberi (SETFA) [11]
  percentage damage caused to the plant, SETFA (five-point scale): 2 (2=21-40%)
Zea mays (ZEAMX) [12]
  percentage damage caused to the plant, ZEAMX (five-point scale): 0 (0=0%)

## CCOC(=O)c1nn(-c2ccc(OC(F)(F)F)cc2)c2cccc(S(=O)(=O)C3CC3)c2c1=O [Compound P34, ethyl 5-cyclopropylsulfonyl-4-oxo-1-[4-(trifluoromethoxy)phenyl]cinnoline-3-carboxylate]
[1]
  percentage damage caused to the plant, five-point scale, AMARE: 0 (0=0%)
Setaria faberi (SETFA) [2]
  percentage damage caused to the plant, five-point scale, SETFA: 0 (0=0%)
[3]
  percentage damage caused to the plant, five-point scale, ECHCG: 0 (0=0%)
[4]
  percentage damage caused to the plant, five-point scale, IPOHE: 0 (0=0%)
[5]
  percentage damage caused to the plant, five-point scale, ABUTH: 0 (0=0%)
Zea mays (ZEAMX) [6]
  percentage damage caused to the plant, five-point scale, ZEAMX: 0 (0=0%)
[7]
  percentage damage caused to the plant, ABUTH (five-point scale): 0 (0=0%)
[8]
  percentage damage caused to the plant, AMARE (five-point scale): 0 (0=0%)
[9]
  percentage damage caused to the plant, ECHCG (five-point scale): 0 (0=0%)
[10]
  percentage damage caused to the plant, IPOHE (five-point scale): 0 (0=0%)
Setaria faberi (SETFA) [11]
  percentage damage caused to the plant, SETFA (five-point scale): 0 (0=0%)
Zea mays (ZEAMX) [12]
  percentage damage caused to the plant, ZEAMX (five-point scale): 0 (0=0%)

## CCCCCCCOC(=O)c1nn(-c2ccc(OC(F)(F)F)cc2)c2cccc(S(C)(=O)=O)c2c1=O [Compound P77, heptyl 5-methylsulfonyl-4-oxo-1-[4-(trifluoromethoxy)phenyl]cinnoline-3-carboxylate]
[1]
  percentage damage caused to the plant, five-point scale, AMARE: 0 (0=0%)
Setaria faberi (SETFA) [2]
  percentage damage caused to the plant, five-point scale, SETFA: 5 (5=81-100%)
[3]
  percentage damage caused to the plant, five-point scale, ECHCG: 3 (3=41-60%)
[4]
  percentage damage caused to the plant, five-point scale, IPOHE: 0 (0=0%)
[5]
  percentage damage caused to the plant, five-point scale, ABUTH: 0 (0=0%)
Zea mays (ZEAMX) [6]
  percentage damage caused to the plant, five-point scale, ZEAMX: 0 (0=0%)
[7]
  percentage damage caused to the plant, ABUTH (five-point scale): 1 (1=10-20%)
[8]
  percentage damage caused to the plant, AMARE (five-point scale): 0 (0=0%)
[9]
  percentage damage caused to the plant, ECHCG (five-point scale): 3 (3=41-60%)
[10]
  percentage damage caused to the plant, IPOHE (five-point scale): 0 (0=0%)
Setaria faberi (SETFA) [11]
  percentage damage caused to the plant, SETFA (five-point scale): 4 (4=61-80%)
Zea mays (ZEAMX) [12]
  percentage damage caused to the plant, ZEAMX (five-point scale): 0 (0=0%)

## CS(=O)(=O)c1cc(Br)cc2c1c(=O)c(C(=O)O)nn2-c1ccc(OC(F)(F)F)cc1 [Compound P13, 7-bromo-5-methylsulfonyl-4-oxo-1-[4-(trifluoromethoxy)phenyl]cinnoline-3-carboxylic acid]
[1]
  percentage damage caused to the plant, five-point scale, AMARE: 0 (0=0%)
Setaria faberi (SETFA) [2]
  percentage damage caused to the plant, five-point scale, SETFA: 0 (0=0%)
[3]
  percentage damage caused to the plant, five-point scale, ECHCG: 0 (0=0%)
[4]
  percentage damage caused to the plant, five-point scale, IPOHE: 0 (0=0%)
[5]
  percentage damage caused to the plant, five-point scale, ABUTH: 1 (1=10-20%)
Zea mays (ZEAMX) [6]
  percentage damage caused to the plant, five-point scale, ZEAMX: 0 (0=0%)
[7]
  percentage damage caused to the plant, ABUTH (five-point scale): 0 (0=0%)
[8]
  percentage damage caused to the plant, AMARE (five-point scale): 1 (1=10-20%)
[9]
  percentage damage caused to the plant, ECHCG (five-point scale): 1 (1=10-20%)
[10]
  percentage damage caused to the plant, IPOHE (five-point scale): 0 (0=0%)
Setaria faberi (SETFA) [11]
  percentage damage caused to the plant, SETFA (five-point scale): 1 (1=10-20%)
Zea mays (ZEAMX) [12]
  percentage damage caused to the plant, ZEAMX (five-point scale): 1 (1=10-20%)

## CCOC(=O)c1nn(-c2ccc(OC(F)(F)F)cc2)c2cccc([S+]([O-])CC(F)(F)F)c2c1=O (stereo not drawn) [Compound P38, ethyl 4-oxo-5-(2,2,2-trifluoroethylsulfinyl)-1-[4-(trifluoromethoxy)phenyl]cinnoline-3-carboxylate]
[1]
  percentage damage caused to the plant, five-point scale, AMARE: 0 (0=0%)
Setaria faberi (SETFA) [2]
  percentage damage caused to the plant, five-point scale, SETFA: 0 (0=0%)
[3]
  percentage damage caused to the plant, five-point scale, ECHCG: 0 (0=0%)
[4]
  percentage damage caused to the plant, five-point scale, IPOHE: 0 (0=0%)
[5]
  percentage damage caused to the plant, five-point scale, ABUTH: 0 (0=0%)
Zea mays (ZEAMX) [6]
  percentage damage caused to the plant, five-point scale, ZEAMX: 0 (0=0%)
[7]
  percentage damage caused to the plant, ABUTH (five-point scale): 1 (1=10-20%)
[8]
  percentage damage caused to the plant, AMARE (five-point scale): 1 (1=10-20%)
[9]
  percentage damage caused to the plant, ECHCG (five-point scale): 0 (0=0%)
[10]
  percentage damage caused to the plant, IPOHE (five-point scale): 0 (0=0%)
Setaria faberi (SETFA) [11]
  percentage damage caused to the plant, SETFA (five-point scale): 1 (1=10-20%)
Zea mays (ZEAMX) [12]
  percentage damage caused to the plant, ZEAMX (five-point scale): 1 (1=10-20%)

## CCCCCOC(=O)c1nn(-c2ccc(OC(F)(F)F)cc2)c2cccc(S(C)(=O)=O)c2c1=O [Compound P75, penyl 5-methylsulfonyl-4-oxo-1-[4-(trifluoromethoxy)phenyl]cinnoline-3-carboxylate]
[1]
  percentage damage caused to the plant, five-point scale, AMARE: 0 (0=0%)
Setaria faberi (SETFA) [2]
  percentage damage caused to the plant, five-point scale, SETFA: 4 (4=61-80%)
[3]
  percentage damage caused to the plant, five-point scale, ECHCG: 4 (4=61-80%)
[4]
  percentage damage caused to the plant, five-point scale, IPOHE: 0 (0=0%)
[5]
  percentage damage caused to the plant, five-point scale, ABUTH: 0 (0=0%)
Zea mays (ZEAMX) [6]
  percentage damage caused to the plant, five-point scale, ZEAMX: 1 (1=10-20%)
[7]
  percentage damage caused to the plant, ABUTH (five-point scale): 0 (0=0%)
[8]
  percentage damage caused to the plant, AMARE (five-point scale): 0 (0=0%)
[9]
  percentage damage caused to the plant, ECHCG (five-point scale): 3 (3=41-60%)
[10]
  percentage damage caused to the plant, IPOHE (five-point scale): 0 (0=0%)
Setaria faberi (SETFA) [11]
  percentage damage caused to the plant, SETFA (five-point scale): 4 (4=61-80%)
Zea mays (ZEAMX) [12]
  percentage damage caused to the plant, ZEAMX (five-point scale): 0 (0=0%)

Reference: US20230250066A1, “HERBICIDAL CINNOLINE DERIVATIVES” (SYNGENTA CROP PROTECTION AG, priority 2020, published 2023)
